Laboratory results published in article PMC11968843, “Sulphostin-inspired N-phosphonopiperidones as selective covalent DPP8 and DPP9 inhibitors” (Nature Communications, 2025).
“And” between values parts separate entries of the source, which are not always exact repeats. Equal entries are not always repeated. “Also recorded” adds a separate entry of the source.

Assays:
[1] = target: T1, HEK293 cell lysates (proteome-wide targets of probe 9) (Homo sapiens, UniProt P05388); assay: Competitive ABPP / direct target identification with alkyne probe 9 in HEK293 cell lysates; type: binding, H. sapiens; details: protein RPLP0;RPLP0P6
T1 construct: endogenous in cells; host or cells: HEK293 cell lysate

[2] = target: T2, HEK293 cell lysates (proteome-wide targets of probe 9) (Homo sapiens, UniProt P0DMV8); assay: as above; type: binding, H. sapiens; details: protein HSPA1A;HSPA1B
T2 construct: endogenous in cells; host or cells: HEK293 cell lysate

HeLa wild-type cells [3] = assay: Cell viability assay (MTT), inhibitor alone; type: cell-based; details: for Cell viability normalized to mock treated cells + 0 µM MMC: individual replicate values (Supplementary Figure 11a); for 95% confidence interval of difference: Figure 5d S11a, Ctrl. [-MMC] vs. compound [-MMC], Tukey's multiple comparisons test
Description: (§1) HeLa wild-type (HeLa Flp-In T-REx WT, kind gift from Prof. Matthias Hentze) and HeLa DPP9^KO cells (prepared in-house) were cultured in DMEM (ThermoFisher, USA) supplemented with 10% FBS (PAN Biotech, Germany), 2 mM L-Glutamin (ThermoFisher, USA) and 1% Penicillin/Streptomycin (100 U mL^−1 Penicillin and 100 µg mL^−1 Streptomycin, ThermoFisher, USA). Cells were seeded in 96-well flat-bottom cell culture plates (Greiner, Germany) at a concentration of 5 × 10^3 cells per well (37 °C and 5% CO2). The indicated concentration of Mitomycin C (MMC, Merck) was added to the cells 24 h after seeding, together with 10 µM of the indicated inhibitor. The inhibitors were refreshed every 24 h. Control cells were treated with DMSO.
(§2) Cell viability was measured 72 hours after the MMC treatment. For this, the medium was removed and replaced with phenol-red free DMEM (ThermoFisher, USA) containing 0.5 mg mL^−1 MTT (Sigma Aldrich, USA). Cells were incubated for 30 min at 37 °C, 5% CO2. Subsequently, the medium was removed and replaced by DMSO. The plates were shaken on an orbital shaker for 20 min before measuring the MTT signal on a CARIOstar Plus microplate reader (BMT labtech, Germany). Each experiment was performed three times, each in triplicates.

HeLa wild-type cells [4] = assay: Cell viability assay (MTT), co-treatment with Mitomycin C; type: cell-based; details: for cell viability normalized for each condition seperately to corresponsing [-MMC +inhibitor] control: +MMC co-treatment, individual replicate values (Supplementary Figure 11b)
Description: as §1, §2

[5] = target: T3, DPP9-BRCA2 interaction in HeLa wild-type cells (Homo sapiens, UniProt Q86TI2); assay: Proximity ligation assay (PLA) of MMC-induced DPP9-BRCA2 interaction; type: cell-based; details: for 95% confidence interval of difference: compound vs. +Ctrl., Unpaired two-sided t-test
T3 construct: endogenous in cells; host or cells: HeLa wild-type (HeLa Flp-In T-REx WT)
Description: HeLa wild-type cells were cultured as described above. Cells were seeded on coverslips in 24‐well plates (Greiner, Germany) at a concentration of 2 × 10^4 cells per well (37 °C and 5% CO2). To induce a DPP9-BRCA2 interaction, 300 nM MMC was added to the cells 8 h after seeding and for a total incubation time of 24 h. Indicated Inhibitors (10 µM) were added 1 h prior to cell fixation. Cells were fixed with 4% formaldehyde in PBS for 10 min and permeabilized with 0.2% Triton‐X‐100 in PBS for 5 min. The proximity ligation assay (PLA) was performed using the Duolink in situ PLA Kit (Sigma Aldrich, USA). Briefly, cells were washed with PBS and blocked with Duolink Blocking solution for 60 min at 37 °C. […] Antibody control coverslips were treated with only one primary antibody to estimate background staining in each experiment. Coverslips were washed and treated with PLA reagents according to the manufacturers protocol. Cells were mounted in DAKO with DAPI fluorescent mounting medium and analyzed using an LSM 710 confocal microscope, 63x NA 1.4 oil immersion objective (Zeiss, Germany). Images were processed using Zen black v2.3 (Zeiss, Germany) and subsequently analyzed using the Duolink ImageTool Setup 1.0.1.2 (Sigma Aldrich, USA).

[6] = Figure 5d S11a, + Ctrl. [+MMC] vs. compound [+MMC], Tukey's multiple comparisons test
[7] = Figure S11b, Ctrl. vs. compound, Uncorrected Fisher's LSD

T3 sequence (Q86TI2 whole entry): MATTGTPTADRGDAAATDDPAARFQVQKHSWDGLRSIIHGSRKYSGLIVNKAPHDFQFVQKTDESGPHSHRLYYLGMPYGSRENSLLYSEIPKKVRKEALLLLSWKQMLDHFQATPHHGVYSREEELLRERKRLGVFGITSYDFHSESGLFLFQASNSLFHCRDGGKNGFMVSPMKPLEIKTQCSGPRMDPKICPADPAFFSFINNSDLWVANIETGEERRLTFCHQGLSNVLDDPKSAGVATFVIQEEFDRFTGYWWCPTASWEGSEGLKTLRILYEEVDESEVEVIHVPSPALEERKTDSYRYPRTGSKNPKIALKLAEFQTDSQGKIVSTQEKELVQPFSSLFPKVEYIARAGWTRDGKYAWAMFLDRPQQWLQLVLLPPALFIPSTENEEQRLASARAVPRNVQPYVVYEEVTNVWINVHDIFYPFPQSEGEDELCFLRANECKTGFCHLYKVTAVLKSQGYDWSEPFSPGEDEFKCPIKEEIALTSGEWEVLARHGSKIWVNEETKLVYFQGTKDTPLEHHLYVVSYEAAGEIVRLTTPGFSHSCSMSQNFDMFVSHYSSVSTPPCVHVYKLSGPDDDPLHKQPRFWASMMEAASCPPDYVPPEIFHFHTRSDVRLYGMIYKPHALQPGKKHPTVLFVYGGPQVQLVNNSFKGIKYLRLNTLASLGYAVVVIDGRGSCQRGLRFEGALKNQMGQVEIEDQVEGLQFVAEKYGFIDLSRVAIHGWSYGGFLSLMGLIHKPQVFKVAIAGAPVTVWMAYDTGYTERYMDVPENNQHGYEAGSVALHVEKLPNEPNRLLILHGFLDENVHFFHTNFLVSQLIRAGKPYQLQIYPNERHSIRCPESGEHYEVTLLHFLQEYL
T2 sequence (P0DMV8 whole entry): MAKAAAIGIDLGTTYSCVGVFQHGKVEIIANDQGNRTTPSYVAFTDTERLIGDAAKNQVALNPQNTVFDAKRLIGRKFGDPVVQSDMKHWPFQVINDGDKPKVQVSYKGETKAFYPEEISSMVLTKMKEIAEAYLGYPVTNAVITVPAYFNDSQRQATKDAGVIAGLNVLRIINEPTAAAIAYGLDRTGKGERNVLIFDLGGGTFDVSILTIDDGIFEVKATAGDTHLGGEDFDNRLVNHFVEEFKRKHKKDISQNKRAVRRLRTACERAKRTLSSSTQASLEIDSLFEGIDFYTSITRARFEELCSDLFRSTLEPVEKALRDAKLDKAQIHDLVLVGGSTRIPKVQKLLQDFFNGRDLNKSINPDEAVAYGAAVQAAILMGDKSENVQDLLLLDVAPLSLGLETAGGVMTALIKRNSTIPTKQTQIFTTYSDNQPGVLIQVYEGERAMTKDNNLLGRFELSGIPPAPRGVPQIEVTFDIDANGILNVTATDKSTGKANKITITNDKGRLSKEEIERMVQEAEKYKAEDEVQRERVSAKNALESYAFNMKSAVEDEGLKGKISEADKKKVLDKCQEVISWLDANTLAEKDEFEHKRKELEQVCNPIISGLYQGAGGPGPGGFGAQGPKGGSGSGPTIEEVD

Row | SMILES | Log2-fold change (9/DMSO) [1] | Log2-fold change (9/DMSO) [2] | Cell viability normalized to mock treated cells + 0 µM MMC (HeLa wild-type cells [3]) | 95% confidence interval of difference (HeLa wild-type cells [3]) | cell viability normalized for each condition seperately to corresponsing [-MMC +inhibitor] control (HeLa wild-type cells [4]) | 95% confidence interval of difference (HeLa wild-type cells [4]; [6]) | 95% confidence interval of difference (HeLa wild-type cells [4]; [7]) | 95% confidence interval of difference ([5]; Figure 5c) | 95% confidence interval of difference ([5]; Figure S10a replicate 1) | 95% confidence interval of difference ([5]; Figure S10a replicate 2) | 95% confidence interval of difference ([5]; Figure S10a replicate 3) | effect on MMC-induced DPP9-BRCA2 PLA events ([5]; HeLa wild-type, 300 nM MMC 24 h, 10 µM inhibitor) | effect on cell viability without MMC (HeLa wild-type cells [3]; HeLa wild-type, 10 µM, 72 h) | effect on cell viability / sensitivity to MMC (HeLa wild-type cells [4]; HeLa wild-type, 1 µM MMC + 10 µM inhibitor, 72 h)
1 | C#CCCCP(=O)(OCC)N1CCCC(N)C1=O.O=C(O)C(F)(F)F (mixture of isomers) [Compound 9] | 0.9479 | 0.0845 | – | – | – | – | – | – | – | – | – | – | – | –
2 | CCCCCCP(=O)(OCC)N1CCC[C@H](N)C1=O (stereo partly shown) [Compound 5] | – | – | 95.9127% and 99.5028% and 95.7865% and 114.42% and 79.6662% and 94.1915% and 91.8119% and 83.2505% and 91.8375% | -2,823 to 18,38 | 58.346% and 64.1242% and 71.7486% and 57.5023% and 82.3895% and 73.7368% and 74.46% and 78.7587% and 61.0935% | -9,959 to 11,24 | -11,45 to 2,173 | – | – | – | – | – | – | –
3 | CCCCCc1ccc(SCCP(=O)(OCC)N2CCC[C@H](N)C2=O)cc1.O=C(O)C(F)(F)F (stereo partly shown) [Compound 16] | – | – | 97.3681% and 98.2989% and 98.3512% and 104.946% and 88.3417% and 98.5541% and 95.4309% and 92.3469% and 88.9994% | -4,629 to 16,57 | 56.5022% and 55.2183% and 55.934% and 53.6658% and 54.9944% and 49.1952% and 50.7013% and 59.4169% and 66.1488% | 1,107 to 22,31 | 1,930 to 15,55 | -75,96 to -55,68 | -67,48 to -40,38 | -89,07 to -45,54 | -92,21 to -59,25 | significant reduction in the number of MMC-induced PLA events | not toxic to cells; also recorded: did not show cytotoxic effects | increase in the sensitivity of cells to genotoxic stress; also recorded: clearly increased the sensitivity of cells to MMC
